{"source": "patent US20150245597A1", "about": "“HETEROZYGOUS MOUSE WITH AN INACTIVATED BRD1 ALLELE AND USES IN PSYCHIATRY” (CAPNOVA A/S, priority 2012, published 2015)", "assay_type_in_all_cases": "in vivo, mouse", "key": {"R mice [1]": {"test_system": "R mice", "assay": "Pre-Pulse Inhibition (PPI) test during pharmacological challenge", "experimental": "Gaiting and re-activity of the startle reflex was investigated by Acoustic Startle Response (ASR) and Pre-Pulse Inhibition (PPI) tests. In addition to baseline scores mice were also tested during pharmacological challenge; PCP (2.5 and 5 mg/kg s.c.) and amphetamine (2.5 and 5 mg/kg s.c.)."}, "R mice [2]": {"test_system": "R mice", "assay": "Y-maze spontaneous alternation test with PCP challenge", "conditions": "R mice vs W, PCP 1.3 mg/kg s.c., p<0.01", "experimental": "(§1) Spatial learning and spatial working memory was tested in the Morris Water Maze (MWM). Learning was scored based on latency to escape while memory was scored based on frequency and time spent in each zone of the maze. Exploratory and working memory components was addressed by various types of y-maze alternation tasks including spontaneous alternation test with dark phase testing, continuous alternation, and delayed alternation. Both baseline and induced behaviour (PCP 1.3 mg/kg s.c. and 2.5 mg/kg s.c.) was assessed. In all Y-maze tasks, alternation was calculated as the percentage of right choices out of the total arm entries."}, "R mice [3]": {"test_system": "R mice", "assay": "Psychotropic drug-induced locomotor hyperactivity test", "experimental": "Psychotropic drug-induced locomotor hyperactivity was established by injections with PCP (1.3, 2.5, and 5 mg/kg s.c.), amphetamine (1.3, 2.5, and 5 mg/kg s.c.) and cocaine (10, 20, and 30 mg/kg s.c.) as opposing saline vehicle s.c. and measured by recording both horizontal locomotor activity and rearing activity in an automated photo-cell equipped home-cage."}, "R mice [4]": {"test_system": "R mice", "assay": "Y-maze continuous alternation test with PCP challenge", "conditions": "R mice vs W, PCP 1.3 mg/kg s.c., p<0.05", "experimental": "as §1"}, "R mice [5]": {"test_system": "R mice", "assay": "Forced swim test (FST) with anti-depressants", "conditions": "for depressive equivalent behaviours during FST, difference between R and W mice: imipramine 1 mg/kg and 10 mg/kg, Fluoxetine 5 mg/kg, SC", "procedure": "(§2) Depressive equivalent behaviours were assessed by forced swim test (FST) and tail suspension test (TST). Depressive equivalent behaviours (FST and TST) were assessed with anti-depressants (e.g. imipramine at two doses: 1 mg/kg and 10 mg/kg and Fluoxetine: 5 mg/kg, and with normal saline vehicle subcutaneous (SC) injections."}, "R mice [6]": {"test_system": "R mice", "assay": "Tail suspension test (TST) with anti-depressants", "conditions": "for depressive equivalent behaviours during TST, difference between R and W mice: imipramine 1 mg/kg and 10 mg/kg, Fluoxetine 5 mg/kg, SC", "procedure": "as §2"}, "[7]": {"conditions": "Imipramine 10 mg/kg compared with Fluoxetine"}}}
{"compound": "c1ccc(C2(N3CCCCC3)CCCCC2)cc1", "note": "[PCP]", "values": [{"measurement": "inhibition of the startle in the PPI test", "setting": "R mice [1]; R males vs W mice, high prepulse intensities (15 db above background noise level), PCP 5 m/kg s.c.", "result": "reduced"}, {"measurement": "Prepulse inhibition, response of R mice as compared to W littermates", "setting": "R mice [1]; Table 1, males only with PCP", "result": "Decreased"}, {"measurement": "alternation in the spontaneous alternation test", "setting": "R mice [2]", "result": "significant reduction"}, {"measurement": "drug-induced locomotor hyperactivity (horizontal and rearing activity)", "setting": "R mice [3]; R males vs W mice, PCP 5 mg/kg s.c.", "result": "clear sensitivity"}, {"measurement": "alternation in the continuous alternation test", "setting": "R mice [4]", "result": "significant reduction"}]}
{"compound": "CN(C)CCCN1c2ccccc2CCc2ccccc21", "note": "[Imipramine, imipramine]", "values": [{"measurement": "effect size on depressive equivalent behaviours (FST)", "setting": "R mice [5]; [7]", "result": "larger effect sizes than Fluoxetine"}, {"measurement": "depressive equivalent behaviours during FST, difference between R and W mice", "setting": "R mice [5]", "result": "reversed"}, {"measurement": "effect size on depressive equivalent behaviours (TST)", "setting": "R mice [6]; [7]", "result": "larger effect sizes than Fluoxetine"}, {"measurement": "depressive equivalent behaviours during TST, difference between R and W mice", "setting": "R mice [6]", "result": "reversed"}]}
{"compound": "CNCCC(Oc1ccc(C(F)(F)F)cc1)c1ccccc1", "note": "(stereo not shown) [Fluoxetine]", "values": [{"measurement": "depressive equivalent behaviours during FST, difference between R and W mice", "setting": "R mice [5]", "result": "reversed"}, {"measurement": "depressive equivalent behaviours during TST, difference between R and W mice", "setting": "R mice [6]", "result": "reversed"}]}
{"compound": "CC(N)Cc1ccccc1", "note": "(stereo not shown) [Amphetamine, amphetamine]", "values": [{"measurement": "differences between R and W mice in PPI test when challenged", "setting": "R mice [1]; amphetamine at any dose (2.5 and 5 mg/kg s.c.)", "result": "No differences"}, {"measurement": "drug-induced locomotor activity response (horizontal and rearing activity)", "setting": "R mice [3]; R males compared to W mice, amphetamine 5 mg/kg s.c.", "result": "obvious hypoactivity"}]}
